Measured values as given in US11464770B2, “Anticancer pharmaceutical composition” (NATIONAL CANCER CENTER, priority 2016, dated 2022).
Where two headings read alike, the source gives them in different places.

What was measured:
[1] = tested on: blood cancer cell lines (e.g. HL-60, Jurkat, Raji, Ramos, Daudi, MOLT-4); test: Cell based assay, cell viability (CellTiter-Glo), blood cancer cell lines; settings: Homo sapiens
Summary of the method: (§1)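 Commercial tumour lines, detached with trypsin-EDTA, were seeded and incubated 24 h. They were then dosed to 0–2 μM final, grown 72 h, and assessed for viability using CellTiter-Glo.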

[2] = tested on: pancreatic cancer cell lines (e.g. MIA PaCa-2); test: Cell based assay, cell viability (CellTiter-Glo), pancreatic cancer cell lines; settings: Homo sapiens
Summary of the method: as §1

brain cancer cell lines = test: Cell based assay, cell viability (CellTiter-Glo), brain cancer cell lines; settings: Homo sapiens
[3] = tested on: cervical carcinoma cell lines; test: Cell based assay, cell viability (CellTiter-Glo), cervical carcinoma cell lines; settings: Homo sapiens; HeLa cells
renal cancer cell lines = test: Cell based assay, cell viability (CellTiter-Glo), renal cancer cell lines; settings: Homo sapiens; ACHN cells
Summary of the method: as §1

[4] = MV4-11, blood cancer cell line MV-4-11, 72 hours, read-out: IC50, MV-4-11
[5] = blood cancer cell line Daudi, 72 hours, read-out: IC50, Daudi
[6] = blood cancer cell line HL-60, 72 hours, read-out: IC50, HL-60
[7] = blood cancer cell line Jurkat, 72 hours, read-out: IC50, Jurkat
[8] = blood cancer cell line MOLT-4, 72 hours, read-out: IC50, MOLT-4
[9] = blood cancer cell line Raji, 72 hours, read-out: IC50, Raji
[10] = blood cancer cell line Ramos (RA 1), 72 hours, read-out: IC50, Ramos (RA 1)
[11] = blood cancer cell line U-937, 72 hours, read-out: IC50, U-937
[12] = pancreatic cancer cell line AsPC-1, 72 hours, read-out: IC50, AsPC-1
[13] = pancreatic cancer cell line BxPC-3, 72 hours, read-out: IC50, BxPC-3
[14] = pancreatic cancer cell line CFPAC-1, 72 hours, read-out: IC50, CFPAC-1
[15] = pancreatic cancer cell line Capan-1, 72 hours, read-out: IC50, Capan-1
[16] = pancreatic cancer cell line Capan-2, 72 hours, read-out: IC50, Capan-2
[17] = pancreatic cancer cell line MIA PaCa-2, 72 hours, read-out: IC50, MIA PaCa-2
[18] = pancreatic cancer cell line PANC-1, 72 hours, read-out: IC50, PANC-1
[19] = U138-MG, U-138 MG cell line, read-out: IC50, Brain cancer cell line U-138 MG
[20] = T98G cell line, read-out: IC50, Brain cancer cell line T98G
[21] = U-251 MG cell line, read-out: IC50, Brain cancer cell line U-251 MG

| Compound | IC50 [1, 4] [nM] | IC50 [1, 5] [nM] | IC50 [1, 6] [nM] | IC50 [1, 7] [nM] | IC50 [1, 8] [nM] | IC50 [1, 9] [nM] | IC50 [1, 10] [nM] | IC50 [1, 11] [nM] | IC50 [2, 12] [nM] | IC50 [2, 13] [nM] | IC50 [2, 14] [nM] | IC50 [2, 15] [nM] | IC50 [2, 16] [nM] | IC50 [2, 17] [nM] | IC50 [2, 18] [nM] | IC50 (brain cancer cell lines; [19]) [nM] | IC50 (brain cancer cell lines; [20]) [nM] | IC50 (brain cancer cell lines; [21]) [nM] | IC50 [3] [nM] | IC50 (renal cancer cell lines) [nM] |
| --- | --- | --- | --- | --- | --- | --- | --- | --- | --- | --- | --- | --- | --- | --- | --- | --- | --- | --- | --- | --- |
| CC(=O)c1c([S+]([O-])Cc2cccc(I)c2)[nH]c2c(Br)ccc(Cl)c2c1=O (stereo not drawn) [Compound 48, 3-acetyl-8-bromo-5-chloro-2-((3-iodobenzyl)sulfinyl)quinolin-4(1H)-one] | > 2000 | > 2000 | > 2000 | > 2000 | > 2000 | > 2000 | > 2000 | > 2000 | > 2000 | > 2000 | > 10000 | > 2000 | > 2000 | > 2000 | > 2000 | > 2000 | > 10000 | > 2000 | > 10000 | > 2000 |
| CC(=O)c1c(SCc2cccc(F)c2)[nH]c2c(Br)ccc(Cl)c2c1=O [Compound 49, 3-acetyl-8-bromo-5-chloro-2-((3-fluorobenzyl)thio)quinolin-4(1H)-one] | > 2000 | > 2000 | > 2000 | > 2000 | > 2000 | > 2000 | > 2000 | > 2000 | > 2000 | > 2000 | > 10000 | > 2000 | > 2000 | > 2000 | > 2000 | > 10000 | > 10000 | > 2000 | > 10000 | > 2000 |
| CC(=O)c1c([S+]([O-])Cc2ccccc2)nc2c(Br)ccc(Cl)c2c1O (stereo not drawn) [Compound 53, 1-(2-(benzylsulfinyl)-8-bromo-5-chloro-4-hydroxyquinolin-3-yl)ethan-1-one] | > 2000 | > 2000 | > 2000 | > 2000 | > 2000 | > 2000 | > 2000 | > 2000 | > 2000 | > 2000 | > 10000 | > 2000 | > 2000 | > 2000 | > 2000 | > 10000 | > 10000 | > 2000 | > 10000 | > 2000 |
| CC(=O)c1c([S+]([O-])Cc2ccccc2C#N)[nH]c2c(Br)ccc(Cl)c2c1=O (stereo not drawn) [Compound 58, 2-(((3-acetyl-8-bromo-5-chloro-4-oxo-1,4-dihydroquinolin-2-yl)sulfinyl)methyl)benzonitrile] | 970 | 1980 | 870 | 990 | 1240 | 940 | 1250 | 730 | > 2000 | > 2000 | > 10000 | > 2000 | > 2000 | 810 | > 2000 | 1460 | > 10000 | 840 | > 10000 | > 2000 |
| COCSc1[nH]c2c(Br)ccc(Cl)c2c(=O)c1C(C)=O [Compound 61, 3-acetyl-8-bromo-5-chloro-2-((methoxymethyl)thio)quinolin-4(1H)-one] | > 2000 | > 2000 | > 2000 | > 2000 | > 2000 | > 2000 | > 2000 | > 2000 | > 2000 | > 2000 | > 10000 | > 2000 | > 2000 | > 2000 | > 2000 | > 10000 | > 10000 | > 2000 | > 10000 | > 2000 |

Next, values leading:

| IC50 [1, 4] [nM] | IC50 [1, 5] [nM] | IC50 [1, 6] [nM] | IC50 [1, 7] [nM] | IC50 [1, 8] [nM] | IC50 [1, 9] [nM] | IC50 [1, 10] [nM] | IC50 [1, 11] [nM] | IC50 [2, 12] [nM] | IC50 [2, 13] [nM] | IC50 [2, 14] [nM] | IC50 [2, 15] [nM] | IC50 [2, 16] [nM] | IC50 [2, 17] [nM] | IC50 [2, 18] [nM] | IC50 (brain cancer cell lines; [19]) [nM] | IC50 (brain cancer cell lines; [20]) [nM] | IC50 (brain cancer cell lines; [21]) [nM] | IC50 [3] [nM] | IC50 (renal cancer cell lines) [nM] | Compound |
| --- | --- | --- | --- | --- | --- | --- | --- | --- | --- | --- | --- | --- | --- | --- | --- | --- | --- | --- | --- | --- |
| > 2000 | > 2000 | > 2000 | > 2000 | > 2000 | > 2000 | > 2000 | > 2000 | > 2000 | > 2000 | > 10000 | > 2000 | > 2000 | > 2000 | > 2000 | > 10000 | > 10000 | > 2000 | > 10000 | > 2000 | CC(=O)c1c(SCc2cccc(I)c2)[nH]c2c(Br)ccc(Cl)c2c1=O [Compound 47, 3-acetyl-8-bromo-5-chloro-2-((3-iodobenzyl)thio)quinolin-4(1H)-one] |
| > 2000 | > 2000 | > 2000 | > 2000 | > 2000 | > 2000 | > 2000 | > 2000 | > 2000 | > 2000 | > 10000 | > 2000 | > 2000 | > 2000 | > 2000 | > 10000 | > 10000 | > 2000 | > 10000 | > 2000 | CC(=O)c1c(SCc2ccccc2)nc2c(Br)ccc(Cl)c2c1O [Compound 52, 1-(2-(benzylthio)-8-bromo-5-chloro-4-hydroxyquinolin-3-yl)ethan-1-one] |
| > 2000 | > 2000 | > 2000 | > 2000 | > 2000 | > 2000 | > 2000 | > 2000 | > 2000 | > 2000 | > 10000 | > 2000 | > 2000 | > 2000 | > 2000 | > 10000 | > 10000 | > 2000 | > 10000 | > 2000 | CC(=O)c1c(S(=O)(=O)Cc2ccccc2)nc2c(Br)ccc(Cl)c2c1O [Compound 54, 1-(2-(benzylsulfonyl)-8-bromo-5-chloro-4-hydroxyquinolin-3-yl)ethan-1-one] |
| > 2000 | > 2000 | > 2000 | > 2000 | > 2000 | > 2000 | > 2000 | > 2000 | > 2000 | > 2000 | > 10000 | > 2000 | > 2000 | > 2000 | > 2000 | > 10000 | > 10000 | > 2000 | > 10000 | > 2000 | CC(=O)c1c(S)[nH]c2c(Br)ccc(Cl)c2c1=O [Compound 62, 3-acetyl-8-bromo-5-chloro-2-mercaptoquinolin-4(1H)-one] |
